Tested on: patients following bunionectomy surgery (acute pain)
Test: Study 4: opioid adverse events at morphine equivalent doses, bunionectomy study
Conditions: morphine equivalent 12 mg, q6h, 48 hr

## COc1ccc2c3c1O[C@H]1C(=O)CC[C@@]4(O)[C@@H](C2)N(C)CC[C@]314 [Oxycodone, oxycodone]
  Adverse Events (%): Constipation - moderate/severe: 6%
  Adverse Events (%): Constipation mild/mod/severe: 6%
  Adverse Events (%): Dizziness - moderate/severe: 12%
  Adverse Events (%): Dizziness mild/mod/severe: 24%
  Adverse Events (%): Nausea - moderate/severe: 26%
  Adverse Events (%): Nausea mild/mod/severe: 50%
  Adverse Events (%): Vomiting - moderate/severe: 21%
  Adverse Events (%): Vomiting mild/mod/severe: 21%
  Dropouts (%): 12%

## CN1CC[C@]23c4c5ccc(O)c4O[C@H]2[C@@H](O)C=C[C@H]3[C@H]1C5 [Morphine, morphine]
  Adverse Events (%): Constipation - moderate/severe: 10%
  Adverse Events (%): Constipation mild/mod/severe: 10%
  Adverse Events (%): Dizziness - moderate/severe: 7%
  Adverse Events (%): Dizziness mild/mod/severe: 31%
  Adverse Events (%): Nausea - moderate/severe: 28%
  Adverse Events (%): Nausea mild/mod/severe: 59%
  Adverse Events (%): Vomiting - moderate/severe: 21%
  Adverse Events (%): Vomiting mild/mod/severe: 21%
  Dropouts (%): 7%
